The record followed here is the METLIN SMRT retention time set (Domingo-Almenara et al. 2019).

The data set can be described thus: gradient 5% acetonitrile 3 min, to 50% in 2 min, to 85% in 15 min, held 3 min, 100 µL/min. The settings on record: column: Zorbax Extend-C18 2.1 x 50 mm; eluents: water / acetonitrile, 0.1% formic acid. In a few lines:
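Retention times of pure standards were taken from adduct peaks that were selected by computer and manually inspected. Over 3 months, mixtures of ~100 molecules were run by HPLC–quadrupole time-of-flight mass spectrometry in positive and negative ionization mode. The Zorbax Extend-C18 column (2.1 × 50 mm, 1.8 μm) ran at 100 μL/min in water and acetonitrile, each containing 0.1% formic acid, with 40 μL dead volume and 900 μL dwell volume.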
Regarding `O=C(NCCCN1CCOCC1)c1csc(N2CCN(c3ccccc3)CC2)n1`, the RP-LC retention time was 654 s.

`Cc1ccc(CNC(=O)C2CCCN2S(=O)(=O)c2cc3c(cc2C)NC(=O)C(C)O3)cc1` (stereo unspecified): the RP-LC retention time was found to be 824 s.

For the molecule `CC1CCN(c2nc(C(=O)N(C)c3ccccc3)nc3c2cnn3C)CC1`, the RP-LC retention time was 864 s.

With `Cc1oc(-c2ccccc2)nc1Cn1ccn2nc(-c3ccc(F)cc3)cc2c1=O`, the RP-LC retention time was 1100 s.

As to `FC(F)(F)c1ccc(C2CNCCO2)cc1` (stereo unspecified), the RP-LC retention time was determined as 570 s.

`Cc1cccc(-n2c(=O)c3c(cc(C)n3C)n(CC(=O)Nc3c(C)cccc3C)c2=O)c1` had an RP-LC retention time of 906 s.

With `CCOC(=O)Cc1cc(=O)oc2cc(O)ccc12`, the RP-LC retention time stood at 677 s.

The molecule `O=C(NCc1cc(F)ccc1F)C1CCN(c2cncnc2N2CCCCC2)CC1` gave an RP-LC retention time of 709 s.

As for `CCc1ccc(S(=O)(=O)N2CCC(c3noc(-c4cccc(OC)c4)n3)CC2)cc1`, the RP-LC retention time was determined as 1240 s.

Take `O=C(C1CCN(S(=O)(=O)c2ccc(-c3noc(Cc4ccc(F)cc4)n3)cc2)CC1)N1CCCC1`: the RP-LC retention time was determined as 971 s.

With `CCCN(CC1CCOC1)C(=O)Nc1cccc(CC)c1` (stereo unspecified), the RP-LC retention time came out at 864 s.

Consider `CCCOc1ccccc1Nc1nc(C(=O)OCC)nc2ccccc12`, for which the RP-LC retention time is 1040 s.

Regarding `COc1cc(C(=O)Nc2nc(-c3ccc(Cl)cc3)cs2)cc(OC)c1OC`, the RP-LC retention time was determined as 1120 s.

Molecule `COCC(=O)N1CCCn2nc(-c3ccccc3)cc2C1` displayed an RP-LC retention time of 669 s.

`CCc1ccc(-c2csc(Nc3ccc(F)cn3)n2)cc1` showed an RP-LC retention time of 1190 s.

The molecule `COc1cccc(CNC(=O)CCc2nnc3c4cc(-c5ccccc5)nn4ccn23)c1` returned an RP-LC retention time of 752 s.

`CCCn1cc(CCNC(=O)c2cc(Cl)ccc2F)c2cccnc21` had an RP-LC retention time of 852 s.

Molecule `CCOc1ccc2ncc(C(=O)c3ccc(C)cc3)c(N3CCN(CC)CC3)c2c1` displayed an RP-LC retention time of 622 s.

The molecule `c1ccc(Nc2nc(-c3ccc4c(c3)OCO4)cs2)nc1` yielded an RP-LC retention time of 849 s.

As to `COc1ccc(C)cc1NC(=O)CN1CCN(Cc2ccccc2)C(=O)C1=O`, the RP-LC retention time came out at 684 s.

For the molecule `Cn1c(=O)sc2cc(S(=O)(=O)N3CCC(C(=O)NC4CCCCCC4)CC3)ccc21`, the RP-LC retention time amounted to 896 s.

`CC1CCN(S(=O)(=O)c2ccc3c(c2)CCCC(=O)N3CC(=O)N2CCN(C)CC2)CC1` had an RP-LC retention time of 656 s.

Regarding `O=C(Nc1nccs1)c1csc(Nc2ccccc2)n1`, the RP-LC retention time was determined as 815 s.

In turn, `CCOC(=O)c1noc2ncnc(NCCc3ccc(C)cc3)c12` registered an RP-LC retention time of 1060 s.

Molecule `Cc1nn(-c2ccccc2)c(C)c1/C=C1\Oc2cc(O)ccc2C1=O` returned an RP-LC retention time of 782 s.

`Cc1ccc(-c2nnc(Cc3nc(-c4ccccc4C)no3)o2)cc1C`: the RP-LC retention time was found to be 842 s.

Molecule `O=C(COc1ccccc1)Nc1ccc(-c2nc(-c3ccc(Cl)cc3)no2)cc1` yielded an RP-LC retention time of 1280 s.

`O=C(NC1(c2nc(-c3ccncc3)no2)CCCCC1)c1ccc2c(c1)OCO2` had an RP-LC retention time of 876 s.

In the case of `CCc1ccc(-c2ccc(SCC(=O)Nc3cc(Cl)ccc3OC)nn2)cc1`, the RP-LC retention time is 1180 s.

As for `COc1ccc(NC(=O)C2CC(=O)N(c3ccc4c(c3)CCN4C(C)=O)C2)c(OC)c1` (stereo unspecified), the RP-LC retention time was 675 s.

In turn, `CC(C)N1CCn2cc(S(=O)(=O)Nc3ccc(Cl)cc3)cc2C1=O` had an RP-LC retention time of 805 s.

Regarding `O=S(=O)(c1ccc2c(c1)OCCO2)N1CCCn2nc(-c3cccc(Cl)c3)cc2C1`, the RP-LC retention time was 1040 s.

`Cc1ccc(-c2ccc(-n3nc(C)c(S(=O)(=O)N4CCN(C)CC4)c3C)nn2)cc1` came in with an RP-LC retention time of 695 s.

`CC(=O)Nc1ccc(S(=O)(=O)N=S(C)C)cc1` displayed an RP-LC retention time of 608 s.

Consider `CCC(C)NC(=O)CCc1ccc2nc(-c3ccccc3)[nH]c2c1` (stereo unspecified), for which the RP-LC retention time was found to be 621 s.

Turning to `Cc1csc(-c2ccc(CNC(=O)c3cc4ccccc4[nH]3)cc2)n1`, the RP-LC retention time came to 938 s.

`CCc1cc(C2CCCN2C(=O)Nc2ccc(Cl)cc2)on1` (stereo unspecified): the RP-LC retention time worked out at 890 s.

Consider `CCCC(NC(=O)Cc1ccc(C)cc1)C(=O)Nc1nc2ccccc2[nH]1` (stereo unspecified), for which the RP-LC retention time turned out to be 722 s.

In turn, `O=C1NC2(CCN(C(=O)Cc3cccc(F)c3)CC2)Nc2c(Cl)cccc21` came in with an RP-LC retention time of 785 s.

Regarding `O=C(Cn1cccc1-c1nnc(-c2ccccc2)o1)N1CCN(c2ccc(Cl)cc2)CC1`, the RP-LC retention time is 1100 s.

In turn, `O=C1[C@H]2CN(Cc3c[nH]c4ccccc34)C[C@H]2C(=O)N1CCc1ccccc1` showed an RP-LC retention time of 692 s.

The molecule `Cc1nnc(NC(=O)CSc2nnc(CCc3nc4ccccc4[nH]3)o2)s1` came in with an RP-LC retention time of 542 s.

Consider `Cc1cc(N(C)C)n2nc(CN3CCN(c4ccccc4)CC3)nc2n1`, for which the RP-LC retention time was found to be 607 s.

`O=C(CCC1NC(=O)c2ccccc2NC1=O)NCc1nc(-c2ccccc2)no1` (stereo unspecified) showed an RP-LC retention time of 624 s.

`CNC(=O)c1cccn1Cc1ccc(F)cc1` yielded an RP-LC retention time of 791 s.

In turn, `O=C(NCc1ccncc1)C1CCN(c2ncnc3c2oc2ccccc23)CC1` returned an RP-LC retention time of 593 s.

The molecule `CCn1c(=O)c(C(=O)NCc2ccccc2Br)nc2cccnc21` showed an RP-LC retention time of 871 s.

For the molecule `COc1ccc(-c2ccc(C#N)c(SCC(=O)N3CCN(C)CC3)n2)cc1`, the RP-LC retention time came out at 583 s.

As for `Cc1ccc(NC(=O)Cn2nc3c(Oc4cc(C)cc(C)c4)nccn3c2=O)cc1`, the RP-LC retention time amounted to 871 s.

`COc1ccc(-c2nc(-c3cn(Cc4cccc(F)c4)nn3)no2)cc1OC` had an RP-LC retention time of 901 s.

`COc1ccc2sc(OC3CCN(C(=O)NC(C)C)CC3)nc2c1` gave an RP-LC retention time of 819 s.

`O=C(NCCCN1CCCC1)C1CCN(c2nc3cccnc3s2)CC1` came in with an RP-LC retention time of 585 s.

`NC(=O)c1cc(N2CCOCC2)nc2ccc(F)cc12` gave an RP-LC retention time of 688 s.

On to `CCn1cc(-c2nc(CC(=O)Nc3ccc(Cl)cc3)cs2)c2cccnc21`, for which the RP-LC retention time came out at 996 s.

`O=C(NCCC1=CCCCC1)C(=O)NCC1(c2cccs2)CCCC1` displayed an RP-LC retention time of 1240 s.

Molecule `Cc1sc(C)c(S(=O)(=O)N2CCN(c3ccccn3)CC2)c1-c1cc(C(F)(F)F)on1` had an RP-LC retention time of 887 s.

With `CCCc1ccc(S(=O)(=O)N2CCC(n3cnc4ccc(C)cc4c3=O)CC2)cc1`, the RP-LC retention time worked out at 1100 s.

Consider `CCOC(=O)C1CCN(C(=O)CN2CCN(Cc3ccc(C)cc3)C(=O)C2=O)CC1`, for which the RP-LC retention time was determined as 710 s.

Regarding `CCc1ccc(C2=C(C)C(N3CCCN(C(=O)COC)CC3)=NS2(=O)=O)cc1`, the RP-LC retention time was found to be 742 s.

In the case of `O=C(NCc1ccccc1Cl)C(=O)c1c[nH]c2ccccc12`, the RP-LC retention time was 936 s.

Regarding `C=CCn1nnnc1SCC(=O)Nc1ccc(C(=O)OC)cc1`, the RP-LC retention time is 701 s.

Consider `Cn1c(=O)n(C2CCN(C(=O)Cc3ccccc3)CC2)c2ncncc21`, for which the RP-LC retention time worked out at 655 s.

For `CC(=O)N1CCC2(CC1)OC(=O)C(C)=C2C(=O)NC1CCN(Cc2ccccc2)CC1`, the RP-LC retention time is 581 s.

`COc1ccc2c(ccn2CC(=O)N[C@@H](CC(C)C)C(=O)O)c1` registered an RP-LC retention time of 756 s.

In turn, `CN(Cc1cccn1C)C(=O)NC1CCCCC1` came in with an RP-LC retention time of 836 s.

`Cc1ccc(C2(O)C(=O)N(Cc3nc(-c4ccccc4)oc3C)c3ccccc32)cc1` (stereo unspecified) showed an RP-LC retention time of 1110 s.

`CCOc1cc(C(=O)Nc2c(-c3ccc(F)cc3)nc3cc(C)ccn23)cc(OCC)c1OCC` returned an RP-LC retention time of 819 s.

On to `COc1cc(NC(=O)N2CCCC(Cn3cnc4cccnc43)C2)cc(OC)c1OC` (stereo unspecified), for which the RP-LC retention time was 627 s.

On to `Cc1cnc(C(=O)N2CC(c3nc(CCOC4CCCC4)no3)C2)cn1`, for which the RP-LC retention time is 777 s.

In turn, `Cc1ccn2cc(-c3ccc(NS(=O)(=O)c4ccc(Br)cc4)cc3)nc2n1` showed an RP-LC retention time of 689 s.

For the molecule `Cc1ccc(C(=O)N(C)C2CCc3nnc(C)n3CC2)s1` (stereo unspecified), the RP-LC retention time came to 613 s.

As for `O=C(Nc1cccc(F)c1)N1CCN(Cc2nc3ccc(Cl)cc3o2)CC1`, the RP-LC retention time was determined as 784 s.

The molecule `COc1ccc(CNC(=O)Nc2ccc(-c3nc(-c4cc(C)ccc4C)co3)cc2)cc1` yielded an RP-LC retention time of 1200 s.

On to `COCC1(O)CCOC2(CCN(Cc3ccc(C)cc3C)CC2)C1` (stereo unspecified), for which the RP-LC retention time was 559 s.

In turn, `COc1ccc(C(C)NC(=O)c2sc3ncccc3c2-n2cccc2)cc1OC` (stereo unspecified) came in with an RP-LC retention time of 929 s.

`O=C(Nc1ccc(F)c(Cl)c1)Nc1c(-c2ccncc2)nc2ccccn12`: the RP-LC retention time stood at 628 s.

For the molecule `O=C(COc1ccc(Cl)cc1Cl)N(Cc1ccccn1)Cc1ccco1`, the RP-LC retention time is 830 s.

The molecule `CCOc1nc2ccccc2nc1N1CCCC(C(=O)Nc2cccc3ccccc23)C1` (stereo unspecified) came in with an RP-LC retention time of 1230 s.

`O=C(C1=CN(c2ccc3c(c2)OCCO3)c2cc(Cl)ccc2S1(=O)=O)N1CCCC1`: the RP-LC retention time was 838 s.

`CCCCn1nc(-c2nc(-c3ccc(F)cc3)no2)ccc1=O`: the RP-LC retention time amounted to 1100 s.

The molecule `Cc1ccc(F)c(-n2nnc(C(=O)O)c2C)c1` returned an RP-LC retention time of 689 s.
